Results reported in the supplement of paper PMC10307832.

Experiments:
Test in all cases: relative viability (nuclei count vs DMSO), 5 days (fraction); higher = more cells survive
Bortezomib + Trametinib = compound: CC(C)C[C@H](NC(=O)[C@H](Cc1ccccc1)NC(=O)c1cnccn1)B(O)O [Bortezomib] + CC(=O)Nc1cccc(-n2c(=O)n(C3CC3)c(=O)c3c(Nc4ccc(I)cc4F)n(C)c(=O)c(C)c32)c1 [Trametinib] (partner 0.02 µM)
Method in brief: (§1)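 Lung cancer cell lines were pin-tool dosed in 1536-well plates on the day after seeding, with either a lone drug or a fixed anchor-drug dose plus five library-drug doses (not always all listed) in √10 steps. Nuclei were counted on 4× images after 5 days. Relative viability is the ratio of treated-well to vehicle-well nuclei counts, with each value a median of duplicate plates.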

[1] = compound: CC1=CC(=NN1)NC2=CC(=NC(=N2)/C=C/C3=CC=CC=C3)N4CCN(CC4)C + CC1(C)CCC(c2ccc(Cl)cc2)=C(CN2CCN(c3ccc(C(=O)NS(=O)(=O)c4ccc(N[C@H](CCN5CCOCC5)CSc5ccccc5)c(S(=O)(=O)C(F)(F)F)c4)cc3)CC2)C1 [Navitoclax] (partner 0.5 µM)
Method in brief: as §1

[2] = compound: CC1=CC(=NN1)NC2=CC(=NC(=N2)/C=C/C3=CC=CC=C3)N4CCN(CC4)C + Cc1nc(NC(=O)N2CCC[C@H]2C(N)=O)sc1-c1ccnc(C(C)(C)C(F)(F)F)c1 [Alpelisib] (partner 2 µM)
Method in brief: as §1

Obatoclax + Navitoclax = compound: COC1=CC(c2cc3ccccc3[nH]2)=N/C1=C\c1[nH]c(C)cc1C [Obatoclax] + CC1(C)CCC(c2ccc(Cl)cc2)=C(CN2CCN(c3ccc(C(=O)NS(=O)(=O)c4ccc(N[C@H](CCN5CCOCC5)CSc5ccccc5)c(S(=O)(=O)C(F)(F)F)c4)cc3)CC2)C1 [Navitoclax] (partner 0.5 µM)
Method in brief: as §1

NCI-H2023 showed a relative viability (Bortezomib + Trametinib; first compound 0.0002 µM) of 0.631, a relative viability (Bortezomib + Trametinib; first compound 0.000632 µM) of 0.569 and a relative viability (Bortezomib + Trametinib; first compound 0.002 µM) of 0.533. For the same cell line, the relative viability (Bortezomib + Trametinib; first compound 0.006325 µM) was 0.131, the relative viability (Bortezomib + Trametinib; first compound 0.02 µM) was 0.0889 and the relative viability ([1]; first compound 0.08 µM) was 0.952. It also gave a relative viability ([1]; first compound 0.253 µM) of 1.09, a relative viability ([1]; first compound 0.8 µM) of 0.874 and a relative viability ([1]; first compound 2.53 µM) of 0.387. For the same cell line, the relative viability ([1]; first compound 8 µM) was 0.069, the relative viability ([2]; first compound 0.08 µM) was 0.482 and the relative viability ([2]; first compound 0.253 µM) was 0.645. For the same cell line, the relative viability ([2]; first compound 0.8 µM) was 0.626, the relative viability ([2]; first compound 2.53 µM) was 0.417 and the relative viability ([2]; first compound 8 µM) was 0.0558. The relative viability (Obatoclax + Navitoclax; first compound 0.01 µM) was 0.96, the relative viability (Obatoclax + Navitoclax; first compound 0.03162 µM) was 1.02 and the relative viability (Obatoclax + Navitoclax; first compound 0.1 µM) was 0.911. It also gave a relative viability (Obatoclax + Navitoclax; first compound 0.3162 µM) of 0.906 and a relative viability (Obatoclax + Navitoclax; first compound 1 µM) of 0.612.

Work on EBC-1 yielded a relative viability ([1]; first compound 0.08 µM) of 0.387, a relative viability ([1]; first compound 0.253 µM) of 0.396 and a relative viability ([1]; first compound 0.8 µM) of 0.285. The relative viability ([1]; first compound 2.53 µM) was 0.154, the relative viability ([1]; first compound 8 µM) was 0.147 and the relative viability ([2]; first compound 0.08 µM) was 0.83. It also gave a relative viability ([2]; first compound 0.253 µM) of 0.87, a relative viability ([2]; first compound 0.8 µM) of 0.788 and a relative viability ([2]; first compound 2.53 µM) of 0.183. It also gave a relative viability ([2]; first compound 8 µM) of 0.128, a relative viability (Obatoclax + Navitoclax; first compound 0.01 µM) of 0.449 and a relative viability (Obatoclax + Navitoclax; first compound 0.03162 µM) of 0.379. It also gave a relative viability (Obatoclax + Navitoclax; first compound 0.1 µM) of 0.395, a relative viability (Obatoclax + Navitoclax; first compound 0.3162 µM) of 0.16 and a relative viability (Obatoclax + Navitoclax; first compound 1 µM) of 0.177.

NCI-H1666 showed a relative viability (Bortezomib + Trametinib; first compound 0.0002 µM) of 0.918, a relative viability (Bortezomib + Trametinib; first compound 0.000632 µM) of 0.972 and a relative viability (Bortezomib + Trametinib; first compound 0.002 µM) of 0.914. The relative viability (Bortezomib + Trametinib; first compound 0.006325 µM) was 0.599, the relative viability (Bortezomib + Trametinib; first compound 0.02 µM) was 0.522 and the relative viability ([1]; first compound 0.08 µM) was 0.951. For the same cell line, the relative viability ([1]; first compound 0.253 µM) was 0.898, the relative viability ([1]; first compound 0.8 µM) was 0.906 and the relative viability ([1]; first compound 2.53 µM) was 0.64. The relative viability ([1]; first compound 8 µM) was 0.222, the relative viability ([2]; first compound 0.08 µM) was 0.999 and the relative viability ([2]; first compound 0.253 µM) was 1.07. For the same cell line, the relative viability ([2]; first compound 0.8 µM) was 0.817, the relative viability ([2]; first compound 2.53 µM) was 0.501 and the relative viability ([2]; first compound 8 µM) was 0.183. It also gave a relative viability (Obatoclax + Navitoclax; first compound 0.01 µM) of 0.839, a relative viability (Obatoclax + Navitoclax; first compound 0.03162 µM) of 1.31 and a relative viability (Obatoclax + Navitoclax; first compound 0.1 µM) of 0.865. The relative viability (Obatoclax + Navitoclax; first compound 0.3162 µM) was 0.388 and the relative viability (Obatoclax + Navitoclax; first compound 1 µM) was 0.277.

In the case of NCI-H1975, the relative viability (Bortezomib + Trametinib; first compound 0.0002 µM) is reported as 0.501, the relative viability (Bortezomib + Trametinib; first compound 0.000632 µM) is reported as 0.312 and the relative viability (Bortezomib + Trametinib; first compound 0.002 µM) is reported as 0.152. The relative viability (Bortezomib + Trametinib; first compound 0.006325 µM) was 0.11, the relative viability (Bortezomib + Trametinib; first compound 0.02 µM) was 0.0939 and the relative viability ([1]; first compound 0.08 µM) was 0.977. It also gave a relative viability ([1]; first compound 0.253 µM) of 1.12, a relative viability ([1]; first compound 0.8 µM) of 1.08 and a relative viability ([1]; first compound 2.53 µM) of 0.616. The relative viability ([1]; first compound 8 µM) was 0.134, the relative viability ([2]; first compound 0.08 µM) was 0.59 and the relative viability ([2]; first compound 0.253 µM) was 0.655. For the same cell line, the relative viability ([2]; first compound 0.8 µM) was 0.42, the relative viability ([2]; first compound 2.53 µM) was 0.141 and the relative viability ([2]; first compound 8 µM) was 0.109. For the same cell line, the relative viability (Obatoclax + Navitoclax; first compound 0.01 µM) was 1.18, the relative viability (Obatoclax + Navitoclax; first compound 0.03162 µM) was 1.1 and the relative viability (Obatoclax + Navitoclax; first compound 0.1 µM) was 0.975. For the same cell line, the relative viability (Obatoclax + Navitoclax; first compound 0.3162 µM) was 0.943 and the relative viability (Obatoclax + Navitoclax; first compound 1 µM) was 1.01.

Cell Line NCI-H1793 has a relative viability (Bortezomib + Trametinib; first compound 0.0002 µM) of 0.445, a relative viability (Bortezomib + Trametinib; first compound 0.002 µM) of 0.457 and a relative viability (Bortezomib + Trametinib; first compound 0.006325 µM) of 0.414. For the same cell line, the relative viability (Bortezomib + Trametinib; first compound 0.02 µM) was 0.132, the relative viability ([1]; first compound 0.08 µM) was 0.516 and the relative viability ([1]; first compound 0.253 µM) was 0.446. The relative viability ([1]; first compound 0.8 µM) was 0.466, the relative viability ([1]; first compound 2.53 µM) was 0.156 and the relative viability ([1]; first compound 8 µM) was 0.131. For the same cell line, the relative viability ([2]; first compound 0.08 µM) was 0.679, the relative viability ([2]; first compound 0.253 µM) was 0.758 and the relative viability ([2]; first compound 0.8 µM) was 0.654. For the same cell line, the relative viability ([2]; first compound 2.53 µM) was 0.398, the relative viability ([2]; first compound 8 µM) was 0.124 and the relative viability (Obatoclax + Navitoclax; first compound 0.01 µM) was 0.337. For the same cell line, the relative viability (Obatoclax + Navitoclax; first compound 0.03162 µM) was 0.291, the relative viability (Obatoclax + Navitoclax; first compound 0.1 µM) was 0.51 and the relative viability (Obatoclax + Navitoclax; first compound 0.3162 µM) was 0.422. The relative viability (Obatoclax + Navitoclax; first compound 1 µM) was 0.47.

Cell Line NCI-H1355 has a relative viability (Bortezomib + Trametinib; first compound 0.0002 µM) of 0.432, a relative viability (Bortezomib + Trametinib; first compound 0.000632 µM) of 0.468 and a relative viability (Bortezomib + Trametinib; first compound 0.002 µM) of 0.457. It also gave a relative viability (Bortezomib + Trametinib; first compound 0.006325 µM) of 0.216, a relative viability (Bortezomib + Trametinib; first compound 0.02 µM) of 0.118 and a relative viability ([1]; first compound 0.08 µM) of 0.878. It also gave a relative viability ([1]; first compound 0.253 µM) of 0.961, a relative viability ([1]; first compound 0.8 µM) of 0.974 and a relative viability ([1]; first compound 2.53 µM) of 0.701. It also gave a relative viability ([1]; first compound 8 µM) of 0.386, a relative viability ([2]; first compound 0.08 µM) of 0.863 and a relative viability ([2]; first compound 0.253 µM) of 0.859. For the same cell line, the relative viability ([2]; first compound 0.8 µM) was 0.683, the relative viability ([2]; first compound 2.53 µM) was 0.605 and the relative viability ([2]; first compound 8 µM) was 0.192. For the same cell line, the relative viability (Obatoclax + Navitoclax; first compound 0.01 µM) was 0.883, the relative viability (Obatoclax + Navitoclax; first compound 0.03162 µM) was 0.976 and the relative viability (Obatoclax + Navitoclax; first compound 0.1 µM) was 0.953. The relative viability (Obatoclax + Navitoclax; first compound 0.3162 µM) was 0.885 and the relative viability (Obatoclax + Navitoclax; first compound 1 µM) was 0.91.

For SW 900, the relative viability (Bortezomib + Trametinib; first compound 0.0002 µM) was 0.587, the relative viability (Bortezomib + Trametinib; first compound 0.000632 µM) was 0.578 and the relative viability (Bortezomib + Trametinib; first compound 0.002 µM) was 0.167. The relative viability (Bortezomib + Trametinib; first compound 0.006325 µM) was 0.155 and the relative viability (Bortezomib + Trametinib; first compound 0.02 µM) was 0.145.

Work on A549 yielded a relative viability ([1]; first compound 0.08 µM) of 1.1, a relative viability ([1]; first compound 0.253 µM) of 1.19 and a relative viability ([1]; first compound 0.8 µM) of 0.985. It also gave a relative viability ([1]; first compound 2.53 µM) of 0.0304, a relative viability ([1]; first compound 8 µM) of 0.0283 and a relative viability ([2]; first compound 0.08 µM) of 0.685. It also gave a relative viability ([2]; first compound 0.253 µM) of 0.684, a relative viability ([2]; first compound 0.8 µM) of 0.398 and a relative viability ([2]; first compound 2.53 µM) of 0.0413. The relative viability ([2]; first compound 8 µM) was 0.0242, the relative viability (Obatoclax + Navitoclax; first compound 0.01 µM) was 1.2 and the relative viability (Obatoclax + Navitoclax; first compound 0.03162 µM) was 1.29. For the same cell line, the relative viability (Obatoclax + Navitoclax; first compound 0.1 µM) was 1.16, the relative viability (Obatoclax + Navitoclax; first compound 0.3162 µM) was 0.682 and the relative viability (Obatoclax + Navitoclax; first compound 1 µM) was 0.0677.
